What was measured:
Type in all cases: cell-based
[1] = system: wheat scab fungi (Fusarium graminearum and Fusarium asiaticum); assay: organism not typed; details: for inhibition at 0.125 µg/mL / inhibition at 0.25 µg/mL / inhibition at 0.5 µg/mL: read-out: Mycelial growth inhibition rate (MGIR); for inhibition at 0.5 µg/mL: 0.5 mg/L
[2] = system: melon Fusarium wilt pathogen (Fusarium oxysporum); assay: microbe, parasite or virus in culture; details: 1 mg/L; for inhibition at 1 µg/mL: Fusarium, read-out: Mycelial growth inhibition rate
[3] = system: banana Fusarium wilt pathogen (Fusarium oxysporum); assay: microbe, parasite or virus in culture; details: 1 mg/L; for inhibition at 1 µg/mL: Fusarium, read-out: Mycelial growth inhibition rate
[4] = system: rice bakanae disease pathogen (Fusarium moniliforme); assay: microbe, parasite or virus in culture; details: 1 mg/L; for inhibition at 1 µg/mL: Fusarium verticillioides, read-out: Mycelial growth inhibition rate

| Compound | inhibition at 0.125 µg/mL ([1]; 0.125 mg/L) [%] | inhibition at 0.25 µg/mL ([1]; 0.25 mg/L) [%] | inhibition at 0.5 µg/mL [1] [%] | further results |
| --- | --- | --- | --- | --- |
| CCOC(=O)/C(C#N)=C(\N)c1ccc(N)cc1 [Compound 1] | 65.5 ± 4.3 | 81.2 ± 6.3 | > 90 | – |
| CCOC(=O)/C(C#N)=C(\N)c1ccc(NC)cc1 [Compound 2] | > 90 | > 90 | > 90 | inhibition at 1 µg/mL [2]: > 90%; inhibition at 1 µg/mL [3]: > 90%; inhibition at 1 µg/mL [4]: > 90% |
| CCNc1ccc(/C(N)=C(\C#N)C(=O)OCC)cc1 [Compound 3] | > 90 | > 90 | > 90 | inhibition at 1 µg/mL [2]: > 90%; inhibition at 1 µg/mL [3]: > 90%; inhibition at 1 µg/mL [4]: > 90% |
| CCOC(=O)/C(C#N)=C(\N)c1ccc(N(C)CC)cc1 [Compound 8] | 88.3 ± 4.5 | > 90 | > 90 | – |
| CCOC(=O)/C(C#N)=C(\N)c1ccc(N(CC)CC)cc1 [Compound 11] | > 90 | > 90 | > 90 | inhibition at 1 µg/mL [2]: > 90%; inhibition at 1 µg/mL [3]: > 90%; inhibition at 1 µg/mL [4]: > 90% |
| CCOC(=O)/C(C#N)=C(\N)c1ccc(N2CCC2)cc1 [Compound 15] | 84.2 ± 4.5 | > 90 | > 90 | – |
| CCOC(=O)/C(C#N)=C(\N)c1ccc(N2CCCC2)cc1 [Compound 16] | 82.3 ± 2.5 | > 90 | > 90 | – |
| CCOC(=O)/C(C#N)=C(\N)c1ccc(N2CCCCC2)cc1 [Compound 17] | 81.4 ± 5.5 | > 90 | > 90 | – |
| CCN(CC)c1ccc(/C(N)=C(\C#N)C(=O)OC)cc1 [Compound 28] | 74.4 ± 3.8 | 85.3 ± 3.3 | > 90 | – |
| CCCOC(=O)/C(C#N)=C(\N)c1ccc(NC)cc1 [Compound 34] | 74.1 ± 2.3 | 84.9 ± 5.4 | > 90 | – |
| CCCOC(=O)/C(C#N)=C(\N)c1ccc(NCC)cc1 [Compound 35] | 76.6 ± 3.3 | 85.8 ± 1.8 | > 90 | – |
| CCCOC(=O)/C(C#N)=C(\N)c1ccc(N(C)C)cc1 [Compound 36] | 75.2 ± 3.3 | 85.4 ± 3.9 | > 90 | – |
| CCCOC(=O)/C(C#N)=C(\N)c1ccc(N(CC)CC)cc1 [Compound 37] | 73.9 ± 5.5 | 84.8 ± 7.1 | > 90 | – |
| phenamacril [reference compound] | – | – | – | Mycelial growth inhibition rate (MGIR) ([1]; 0.125 mg/L): 21.1 ± 2.3%; Mycelial growth inhibition rate (MGIR) ([1]; 0.25 mg/L): 36.1 ± 5.0%; Mycelial growth inhibition rate [2]: 25%; Mycelial growth inhibition rate [3]: 25%; Mycelial growth inhibition rate [4]: 25% |
